Reference: patent US7605156B2, “Methods for the use of inhibitors of cytosolic phospholipase A2” (Wyeth, priority 2001, dated 2009)

Legend:
B6 mice = assay: Experimental autoimmune encephalomyelitis (EAE), animal model of multiple sclerosis; format: in vivo; details: orally, 100 mg/kg, twice/day
Procedure: Six groups of B6 mice were immunized with MOG/CFA and injected with pertussis toxin to induce experimental autoimmune encephalomyelitis (EAE), an animal model of Multiple sclerosis. […] Another three groups of mice were treated with vehicle, Compound A or Compound B starting on the day of EAE onset (day 15) (orally, 100 mg/kg, twice/day). […] The results are shown in FIG. 1, wherein mean clinical score is a mean of clinical evaluation of each animal for that particular day. Animals are scored as follows: • 0 no clinical signs of EAE (no paralysis) • 1—paralysis of tail • 2—paralysis of tail and partial hind leg paralysis • 3—paralysis of tail And complete hind leg paralysis • 4—paralysis of tail, complete hind leg paralysis and a partial front leg paralysis • 5—moribund animal (all four limbs paralyzed, lack of responsiveness, these mice were immediately euthanized).

ApoE KO mice = assay: ApoE knockout mouse model of atherosclerosis; format: in vivo; details: 3.3 mg/g in chow, 20 weeks
cPLA2 = target: T1, cPLA2 (Homo sapiens, UniProt P47712); assay: Coumarine assay (hydrolysis of 7-hydroxycoumarinyl 6-heptenoate); format: biochemical; details: 60 μM 7-hydroxycoumarinyl 6-heptenoate, pH 7.5; read-out: Coumarin IC50
T1 sequence (P47712 1-749): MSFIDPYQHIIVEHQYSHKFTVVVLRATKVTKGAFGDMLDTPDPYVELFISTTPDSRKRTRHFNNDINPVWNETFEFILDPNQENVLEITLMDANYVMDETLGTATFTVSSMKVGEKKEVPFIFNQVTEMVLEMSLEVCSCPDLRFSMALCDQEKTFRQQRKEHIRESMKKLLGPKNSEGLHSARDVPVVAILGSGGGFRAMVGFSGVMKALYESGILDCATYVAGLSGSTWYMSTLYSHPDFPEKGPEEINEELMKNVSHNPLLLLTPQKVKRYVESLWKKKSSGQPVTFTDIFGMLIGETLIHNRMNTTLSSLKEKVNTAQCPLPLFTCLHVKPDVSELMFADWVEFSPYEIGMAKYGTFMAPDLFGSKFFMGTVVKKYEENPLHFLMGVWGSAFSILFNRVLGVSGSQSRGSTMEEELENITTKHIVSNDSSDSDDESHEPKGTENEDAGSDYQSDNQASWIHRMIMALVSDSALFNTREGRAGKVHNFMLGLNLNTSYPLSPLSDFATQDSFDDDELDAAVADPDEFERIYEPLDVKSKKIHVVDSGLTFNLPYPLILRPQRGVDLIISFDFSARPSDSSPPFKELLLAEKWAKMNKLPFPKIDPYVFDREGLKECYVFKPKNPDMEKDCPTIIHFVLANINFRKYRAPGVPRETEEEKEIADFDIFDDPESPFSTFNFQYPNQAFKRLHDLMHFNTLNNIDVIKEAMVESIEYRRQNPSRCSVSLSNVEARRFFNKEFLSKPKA

| SMILES | IC50 (cPLA2) [nM] | other results |
| --- | --- | --- |
| O=C(O)c1ccc(OCCc2c(CCNS(=O)(=O)Cc3ccc(Cl)c(Cl)c3)n(C(c3ccccc3)c3ccccc3)c3ccc(Cl)cc23)cc1 [Example 10, 4-{2-[1-Benzhydryl-5-chloro-2-(2-{[(3,4-dichlorobenzyl)sulfonyl]amino}-ethyl)-1H-indol-3-yl]ethoxy}benzoic acid] |  | EAE clinical score: prevention of EAE (B6 mice; from the day of immunization): prevent EAE; EAE clinical score: clinical severity of EAE (B6 mice; starting on the day of EAE onset (day 15)): reduce clinical severity of EAE |
| O=C(O)c1ccc(CCCc2c(CCNS(=O)(=O)Cc3ccc(Cl)c(Cl)c3)n(C(c3ccccc3)c3ccccc3)c3ccc(Cl)cc23)cc1 [Example 44] |  | atherosclerotic plaque burden at the aortic sinus (ApoE KO mice): 282697±146462 μm^2; decrease of atherosclerotic plaque burden at the aortic sinus (ApoE KO mice; vs control animals, p<0.001): 45.6% |
| Cc1cccc(C)c1S(=O)(=O)NCCc1c(CCCc2ccc(C(=O)O)cc2)c2cc(Cl)ccc2n1C(c1ccccc1)c1ccccc1 [Example 270, 4-(3-[1-benzhydryl-5-chloro-2-(2-{[(2,6-dimethylphenyl)sulfonyl]amino}ethyl)-1H-indol-3-yl]propyl}benzoic acid] | 140 |  |
| CCc1cccc(CC)c1S(=O)(=O)NCCc1c(CCCc2ccc(C(=O)O)cc2)c2cc(Cl)ccc2n1C(c1ccccc1)c1ccccc1 [Example 273, 4-{3-[1-benzhydryl-5-chloro-2-(2-{[(2,6-diethylphenyl)sulfonyl]amino}ethyl)-1H-indol-3-yl]propyl}benzoic acid] | 110 |  |
| COc1cccc(OC)c1S(=O)(=O)NCCc1c(CCCc2ccc(C(=O)O)cc2)c2cc(Cl)ccc2n1C(c1ccccc1)c1ccccc1 [Example 275, 4-{3-[1-benzhydryl-5-chloro-2-(2-{[(2,6-dimethoxyphenyl)sulfonyl]amino}ethyl)-1H-indol-3-yl]propyl}benzoic acid] | 240 |  |
| CC(CCl)c1ccccc1S(=O)(=O)NCCc1c(CCCc2ccc(C(=O)O)cc2)c2cc(Cl)ccc2n1C(c1ccccc1)c1ccccc1 (centres unmarked) [Example 277, 4-(3-{1-Benzhydryl-5-chloro-2-[2-({[2-(2-chloro-1-methylethyl)phenyl]sulfonyl}amino)ethyl]-1H-indol-3-yl}propyl)benzoic acid] | 600 |  |
| O=C(O)c1ccc(CCCc2c(CCNS(=O)(=O)C3CC3)n(C(c3ccccc3)c3ccccc3)c3ccc(Cl)cc23)cc1 [Example 280, 4-[3-(1-benzhydryl-5-chloro-2-{2-[(cyclopropylsulfonyl)amino]-ethyl}-1H-indol-3-yl)propyl]benzoic acid] | 350 |  |
| O=C(O)c1ccc(CCCc2c(CCNS(=O)(=O)c3ccccc3Cl)n(C(c3ccccc3)c3ccccc3)c3ccccc23)cc1 [Example 295, 4-{3-[1-benzhydryl-2-(2-{[(2-chlorophenyl)sulfonyl]amino}ethyl)-1H-indol-3-yl]propyl}benzoic acid] | 550 |  |

Second part, led by results:

| IC50 (cPLA2) [nM] | SMILES | other results |
| --- | --- | --- |
| 150 | Cc1cccc(C)c1S(=O)(=O)NCCc1c(CCOc2ccc(C(=O)O)cc2)c2cc(Cl)ccc2n1C(c1ccccc1)c1ccccc1 [Example 271, 4-{2-[1-benzhydryl-5-chloro-2-(2-{[(2,6-dimethylphenyl)sulfonyl]amino}ethyl)-1H-indol-3-yl]ethoxy}benzoic acid] |  |
| 100 | CCc1cccc(CC)c1S(=O)(=O)NCCc1c(CCOc2ccc(C(=O)O)cc2)c2cc(Cl)ccc2n1C(c1ccccc1)c1ccccc1 [Example 272, 4-{2-[1-benzhydryl-5-chloro-2-(2-{[(2,6-diethylphenyl)sulfonyl]amino}ethyl)-1H-indol-3-yl]ethoxy}benzoic acid] |  |
| 1900 | CC(CCl)c1ccccc1S(=O)(=O)NCCc1c(CCOc2ccc(C(=O)O)cc2)c2cc(Cl)ccc2n1C(c1ccccc1)c1ccccc1 (centres unmarked) [Example 278] |  |
| 500 | O=C(O)c1cccc(OCCc2c(CCNS(=O)(=O)Cc3ccccc3)n(C(c3ccccc3)c3ccccc3)c3ccc(Cl)cc23)c1 [Example 283] |  |
| 420 | O=C(O)c1ccc(OCCc2c(CCNS(=O)(=O)CSc3ccc(Cl)cc3Cl)n(C(c3ccccc3)c3ccccc3)c3ccc(Cl)cc23)cc1 [Example 287, 4-[2-(1-benzhydryl-5-chloro-2-{2-[([[(2,4-dichlorophenyl)sulfanyl]methyl}sulfonyl)amino]ethyl}-1H-indol-3-yl)ethoxy]benzoic acid] |  |
| 400 | O=C(O)c1ccc(OCCc2c(CCNS(=O)(=O)CSc3ccc(F)cc3F)n(C(c3ccccc3)c3ccccc3)c3ccc(Cl)cc23)cc1 [Example 288, 4-[2-(1-benzhydryl-5-chloro-2-{2-[({[(2,4-difluorophenyl)thio]methyl}sulfonyl)amino]ethyl}-1H-indol-3-yl)ethoxy]benzoic acid] |  |
| 900 | O=C(O)c1ccc(OCCc2c(CCNS(=O)(=O)C[S+]([O-])c3ccc(Cl)c(Cl)c3)n(C(c3ccccc3)c3ccccc3)c3ccc(Cl)cc23)cc1 (centres unmarked) [Example 289, 4-[2-(1-benzhydryl-5-chloro-2-{2-[({[(3,4-dichlorophenyl)sulfinyl]methyl}sulfonyl)amino]ethyl}-1H-indol-3-yl)ethoxy]benzoic acid] |  |
| 320 | O=C(O)c1ccc(OCCc2c(CCNS(=O)(=O)Cc3ccc(Cl)c(Cl)c3)n(C(c3ccccc3)c3ccccc3)c3ccc(Cl)cc23)cc1F [Example 296, 4-{2-[1-benzhydryl-5-chloro-2-(2-{[(3,4-dichlorobenzyl)sulfonyl]amino}ethyl)-1H-indol-3-yl]ethoxy}-2-fluorobenzoic acid] | melting point: 117 to 119 °C |
| 300 | O=C(O)c1ccc(OCCc2c(CCNS(=O)(=O)Cc3ccccc3Cl)n(C(c3ccccc3)c3ccccc3)c3ccc(Cl)cc23)cc1F [Example 297, 4-{2-[1-benzhydryl-5-chloro-2-(2-{[(2-chlorobenzyl)sulfonyl]amino}ethyl)-1H-indol-3-yl]ethoxy}-2-fluorobenzoic acid] | melting point: 132 to 135 °C |
| 190 | CC(C)(Cc1ccc(S(=O)(=O)CCc2c(CCNS(=O)(=O)Cc3ccc(Cl)c(Cl)c3)n(C(c3ccccc3)c3ccccc3)c3ccc(Cl)cc23)cc1)C(=O)O [Example 298, 3-[4-({2-[1-benzhydryl-5-chloro-2-(2{[(3,4-dichlorobenzyl)sulfonyl]amino}ethyl)-1H-indol-3-yl]ethyl}sulfonyl)phenyl]-2,2-dimethylpropanoic acid] | melting point: 207 to 208 °C |
